Results published in patent US20260355192A1, “PROPHYLACTIC OR THERAPEUTIC AGENT FOR PERIOSTIN-MEDIATED DISEASE AND PRURITUS ASSOCIATED THEREWITH” (SAGA UNIVERSITY, priority 2022, published 2026).

Key:
αvβ3 integrin = settings: cited from earlier work
[1] = system: scratching behaviors in FADS mice; experiment: Scratching behaviors in FADS mice upon single systemic administration of αvβ3 integrin inhibitors; type: in vivo, mouse (FADS, Nestin-cre/Ikk2ff)
From the text: (§1) Nestin-cre transgenic mice were crossed with IKK2^ff mice to prepare Nestin-cre/Ikk2^ff mice specifically lacking IKK2 in their facial skin fibroblasts (Nunomura S, et al. J Invest Dermatol. 139:1274-1283, 2019). These mice inevitably develop atopic dermatitis-like rash limited to the face and intense itchy symptoms, and were therefore designated as Facial Atopic Dermatitis with Scratching (FADS) mice. […] For evaluation of the prophylactic or therapeutic agent of the present invention, FADS mice at 3 to 4 weeks of age or older were used because of showing spontaneous scratching behaviors. It should be noted that in this Example section, the above compound of formula (I) (more particularly “CP4715”) was used as the prophylactic or therapeutic agent of the present invention.
(§2) FADS mice were acclimated for 20 minutes to the environment of a recording cage, and then recorded with a video camera. The recorded videos were replayed, and scratching behaviors were counted assuming that hind paw scratching to the face and the subsequent movement of toe licking or paw lowering to the ground were regarded as one cycle of scratching behavior.
Prior to the administration of the above αvβ3 integrin inhibitors, FADS mice were recorded for 60 minutes with a video camera and then allowed to rest for 15 minutes. The compounds except for GLPG-0187 were each dissolved at 89.5 mM in a diluent (physiological saline containing 50% DMSO and 89.5 mM HCL), from which an amount corresponding to 53.7 μmol/kg per mouse was then taken and diluted with 0.3 mL of PBS, and then administered intraperitoneally. […] Mice administered with 0.3 mL of PBS containing an equal amount of the diluent as calculated based on the body weight were used as a control group.
The mice were recorded for 60 minutes with a video camera immediately after administration of the above αvβ3 integrin inhibitors. The number of scratchings before administration was used as a baseline, and % change from the baseline after administration was calculated for each compound. For statistical analysis, paired t-test was used. A P-value of less than 0.05 was considered to be statistically significant. The effect of an inhibitor whose mean change from the baseline was −65% or more at a P-value of less than 0.01 was expressed as “++”; the effect of an inhibitor whose mean change from the baseline was −60% or less at a P-value of less than 0.05 was expressed as “+”; and the effect of an inhibitor whose mean change from the baseline was −60% or less at a P-value of 0.05 or higher was expressed as “−.”

integrin αvβ3 = molecular target: T1, integrin αvβ3 (Homo sapiens, UniProt P05106+P06756); experiment: Inhibition of periostin-dependent adhesion of SW480 cells expressing integrin αvβ3; type: cell-based; settings: immobilized recombinant human periostin, FIG. 6
T1 construct: SW480 cells, a human colon cancer cell line not expressing integrin β3; expressed in transfected cells; host or cells: SW480 cells (human colon cancer) stably expressing human integrin β3
T1 sequence (P06756 31-889 limits assumed): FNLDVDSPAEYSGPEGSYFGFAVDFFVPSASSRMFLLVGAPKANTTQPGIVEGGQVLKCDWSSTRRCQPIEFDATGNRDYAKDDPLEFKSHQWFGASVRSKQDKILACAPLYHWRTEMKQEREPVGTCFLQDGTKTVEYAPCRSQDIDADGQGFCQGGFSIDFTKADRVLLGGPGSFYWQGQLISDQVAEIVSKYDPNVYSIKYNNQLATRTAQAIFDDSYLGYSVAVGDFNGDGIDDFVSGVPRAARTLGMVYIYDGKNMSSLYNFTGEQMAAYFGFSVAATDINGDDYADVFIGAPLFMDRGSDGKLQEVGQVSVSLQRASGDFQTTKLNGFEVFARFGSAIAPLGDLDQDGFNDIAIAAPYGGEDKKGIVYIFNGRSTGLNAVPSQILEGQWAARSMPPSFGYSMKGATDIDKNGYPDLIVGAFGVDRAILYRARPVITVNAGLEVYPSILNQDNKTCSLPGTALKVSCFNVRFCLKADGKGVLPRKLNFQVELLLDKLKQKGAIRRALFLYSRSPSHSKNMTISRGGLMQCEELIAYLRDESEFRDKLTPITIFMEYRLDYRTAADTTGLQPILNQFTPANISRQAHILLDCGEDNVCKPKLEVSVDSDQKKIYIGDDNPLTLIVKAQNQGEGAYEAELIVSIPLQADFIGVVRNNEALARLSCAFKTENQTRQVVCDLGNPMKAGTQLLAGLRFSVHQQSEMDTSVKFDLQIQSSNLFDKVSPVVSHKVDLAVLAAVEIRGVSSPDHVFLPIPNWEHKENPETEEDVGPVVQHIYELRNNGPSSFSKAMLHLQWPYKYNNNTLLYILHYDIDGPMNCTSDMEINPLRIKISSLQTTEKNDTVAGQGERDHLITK
T1 sequence (P06756 891-1048 partner limits assumed): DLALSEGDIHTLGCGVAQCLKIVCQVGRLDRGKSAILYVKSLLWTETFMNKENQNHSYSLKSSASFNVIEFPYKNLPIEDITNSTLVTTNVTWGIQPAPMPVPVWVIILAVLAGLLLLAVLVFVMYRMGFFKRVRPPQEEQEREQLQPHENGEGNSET
T1 sequence (P05106 27-788): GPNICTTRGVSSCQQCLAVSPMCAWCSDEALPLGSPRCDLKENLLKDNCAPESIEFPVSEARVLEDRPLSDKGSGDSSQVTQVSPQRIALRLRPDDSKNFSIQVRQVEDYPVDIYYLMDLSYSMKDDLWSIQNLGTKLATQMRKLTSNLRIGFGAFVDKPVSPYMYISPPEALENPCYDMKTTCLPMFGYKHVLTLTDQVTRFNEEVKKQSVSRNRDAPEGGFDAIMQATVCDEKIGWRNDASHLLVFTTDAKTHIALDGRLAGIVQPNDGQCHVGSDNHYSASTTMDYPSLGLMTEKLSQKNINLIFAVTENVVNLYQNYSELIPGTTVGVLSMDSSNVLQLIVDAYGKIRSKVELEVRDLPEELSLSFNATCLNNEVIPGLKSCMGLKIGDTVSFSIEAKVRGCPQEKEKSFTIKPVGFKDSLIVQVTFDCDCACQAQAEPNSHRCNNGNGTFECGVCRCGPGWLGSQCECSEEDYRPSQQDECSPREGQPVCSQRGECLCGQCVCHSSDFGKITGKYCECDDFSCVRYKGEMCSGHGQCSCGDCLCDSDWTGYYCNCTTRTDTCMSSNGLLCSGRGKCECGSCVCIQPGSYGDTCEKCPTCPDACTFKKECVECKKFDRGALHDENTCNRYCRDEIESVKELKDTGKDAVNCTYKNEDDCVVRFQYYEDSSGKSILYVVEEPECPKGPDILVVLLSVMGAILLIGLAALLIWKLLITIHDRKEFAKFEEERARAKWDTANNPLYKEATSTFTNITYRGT
Experimental: For use in cell adhesion experiments, SW480 cells, a human colon cancer cell line not expressing integrin β3, were genetically engineered to stably express human integrin β3 (Nanri Y, et al. Am J Respir Cell Mol Biol. 62:204-216, 2020). The compounds shown in Table 1 were examined for their inhibitory activity against adhesion between integrin αvβ3 and periostin according to the following procedures. First, a 96-well plate was treated with 10 μg/mL recombinant human periostin (Bio-Techne) at 4 °C for 16 hours to immobilize periostin. The SW480 cells expressing integrin αvβ3 (5×10^4 cells) were reacted at room temperature for 15 minutes with the above compounds at 0.001, 0.01, 0.1 and 1 μM in serum-free DMEM (Dulbecco's Modified Eagle Medium) containing 0.5% bovine serum albumin and 0.25 mM MnCl2. A group receiving no compound was used as a control. The reacted cell suspensions were added to separate wells of the above human periostin-immobilized plate, and the plate was centrifuged at 10×g for 5 minutes and then cultured at 37 °C for 60 minutes. Then, after the adhered cells were washed to remove unbound cells, the adhered cells were fixed with 1% formaldehyde and stained with 0.5% crystal violet. The fixed and stained cells were solubilized with 0.2% Triton X-100 and measured for absorbance at 595 nm. The absorbance of the control (i.e., the group receiving no compound) was set to 0% inhibition. […] Cell adhesion in this test system is periostin-dependent, and a compound inhibiting this cell adhesion can be referred to as a periostin receptor antagonist.

[2] = system: glycoprotein (GP) IIb/IIIa receptor; settings: cited from earlier work
[3] = system: scratching behaviors in FADS mice; experiment: Scratching behaviors in FADS mice upon repeated percutaneous administration of CP4715; type: in vivo, mouse (FADS, Nestin-cre/Ikk2ff); settings: 30 μL of 26.85 mM solution externally applied once a day for 28 days to facial rash lesions; FIG. 7
From the text: as §1, §2
CP4715 was dissolved in a diluent (5% DMSO/15% N-methyl-2-pyrrolidone/80% ethanol) to prepare a 26.85 mM solution. […] Before administration and on Days 3, 7, 14, 21 and 28 of administration, the number of scratchings during 60 minutes was counted for evaluation.

[4] = system: scratching behaviors in FADS mice; experiment: Scratching behaviors in FADS mice upon repeated systemic administration of CP4715; type: in vivo, mouse (FADS, Nestin-cre/Ikk2ff); settings: at 1 week and 2 weeks after administration; 107.4 μmol/kg twice a day under the dorsal skin; Mann-Whitney's U-test vs diluent control; FIG. 1
From the text: as §1
as §2, with “behavior. […]” for “behavior.”
At 1 week and 2 weeks after drug administration, the mice were recorded for 60 minutes and analyzed to calculate the number of scratchings per minute for evaluation. […]

IC50 (integrin αvβ3; SW480 cells expressing human integrin β3, compounds at 0.001-1 μM, read-out: 50% inhibition concentration (IC50 value) for cell adhesion inhibitory activity): ≤ 1 nM | cell adhesion inhibitory effect (in words) (integrin αvβ3; SW480 cells expressing integrin αvβ3): high
SMILES: COc1cc(C(=O)NC[C@H](NS(=O)(=O)c2ccccc2)C(=O)O)ccc1N1CCC(NC2=NCCCN2)CC1 [CP4715, (S)-3-(3-methoxy-4-(4-((1,4,5,6-tetrahydropyrimidin-2-yl)amino)piperidin-1-yl)benzamido)-2-(phenylsulfonamido)propanoic acid]
antagonistic effect on αvβ3 integrin (αvβ3 integrin): antagonistic effect | % Change from baseline in the number of scratchings (mean ± standard error) ([1]; 53.7 μmol/kg i.p., single, 60 minutes after administration vs before administration): −68.0 ± 14.0% | grade of effect on % change from the baseline in the number of scratchings ([1]; single i.p., 53.7 μmol/kg (GLPG-0187 5.37 μmol/kg), paired t-test): ++ (mean change from the baseline was −65% or more at a P-value of less than 0.01) | antagonistic effect on GP IIb/IIIa receptor [2]: antagonistic effect | time-dependent enhancement of scratching behaviors [3]: suppressed | scratching behaviors (number of scratchings per minute) [4]: significantly suppressed (P<0.05)
